Laboratory results: ChEMBL document CHEMBL1201862, “PubChem BioAssay data set” (2004)
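96-well plates; 48 h exposure; 5 concentrations. Endpoints by linear interpolation between flanking doses. Not reached: highest tested concentration assigned. Here, GI50 denotes the concentration required for 50% inhibition of growth.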 Calls of active or inactive are those of the source. No stated cut-off is given here; in the data, active = GI50 up to about 1.1 µM and inactive = higher.

Experiments:
Test in all cases: growth of human tumour cells (NCI), 48 h
A498 = test system: A498
SR = test system: SR
RPMI-8226 = test system: RPMI-8226
NCI-H23 = test system: NCI-H23
ACHN = test system: ACHN
SK-MEL-5 = test system: SK-MEL-5
IGROV-1 = test system: IGROV-1
UACC-62 = test system: UACC-62
EKVX = test system: EKVX
HL-60 = test system: HL-60
786-0 = test system: 786-0
HT-29 = test system: HT-29
HCC 2998 = test system: HCC 2998
T47D = test system: T47D
Hs-578T = test system: Hs-578T
MDA-MB-435 = test system: MDA-MB-435
NCI/ADR-RES = test system: NCI/ADR-RES
MCF7 = test system: MCF7
DU-145 = test system: DU-145

SMILES	GI50 (A498)	GI50 (SR)	GI50 (RPMI-8226)	GI50 (NCI-H23)	GI50 (ACHN)	GI50 (SK-MEL-5)	GI50 (IGROV-1)	GI50 (UACC-62)	GI50 (EKVX)	GI50 (HL-60)	GI50 (786-0)	GI50 (HT-29)	GI50 (HCC 2998)	GI50 (T47D)	GI50 (Hs-578T)	GI50 (MDA-MB-435)	GI50 (NCI/ADR-RES)	GI50 (MCF7)	GI50 (DU-145)
CCOC(=O)C[C@@]12CCCN[C@]1(C)CCc1ccccc12	> 100 µM (inactive)	> 100 µM (inactive)	> 100 µM (inactive)	> 100 µM (inactive)	> 100 µM (inactive)	> 100 µM (inactive)	> 100 µM (inactive)	> 100 µM (inactive)	> 100 µM (inactive)	> 100 µM (inactive)	> 100 µM (inactive)	> 100 µM (inactive)	> 100 µM (inactive)						
CC1=C(C#N)C(=O)CC(c2ccc(Cl)cc2)N(C)N1 (configuration not stated)	> 100 µM (inactive)	> 100 µM (inactive)	> 100 µM (inactive)	> 100 µM (inactive)	> 100 µM (inactive)	> 100 µM (inactive)				> 100 µM (inactive)	> 100 µM (inactive)	> 100 µM (inactive)	> 100 µM (inactive)						
O=C(O)CCC(NC(=O)c1ccc(Nc2nc3ccccc3nc2-c2cccs2)cc1)C(=O)O (configuration not stated)	> 100 µM (inactive)	> 100 µM (inactive)	> 100 µM (inactive)	> 100 µM (inactive)	> 100 µM (inactive)	> 100 µM (inactive)	> 100 µM (inactive)	> 100 µM (inactive)	> 100 µM (inactive)	> 100 µM (inactive)	> 100 µM (inactive)	> 100 µM (inactive)	> 100 µM (inactive)						
Cc1nc2cc(Nc3ccccc3C(=O)O)ccc2s1	> 100 µM (inactive)	> 100 µM (inactive)	> 100 µM (inactive)	> 100 µM (inactive)	> 100 µM (inactive)	> 100 µM (inactive)	> 100 µM (inactive)	> 100 µM (inactive)		> 100 µM (inactive)	> 100 µM (inactive)	> 100 µM (inactive)	> 100 µM (inactive)						
O=C1Nc2ccc(Cl)c(I)c2C1=O		22 µM (inactive)	> 10 µM (inactive)	18.9 µM (inactive)	16.7 µM (inactive)	19.2 µM (inactive)	17.1 µM (inactive)	18.7 µM (inactive)	5.62 µM (inactive)	16.1 µM (inactive)	19.7 µM (inactive)	29.6 µM (inactive)	14.6 µM (inactive)						
O=S1(=O)c2cc(S(=O)(=O)n3ccnc3)ccc2NC2=NCCCN21	28 µM (inactive)	20.7 µM (inactive)	50 µM (inactive)	30.7 µM (inactive)	34.3 µM (inactive)	20.2 µM (inactive)	40.7 µM (inactive)	48.5 µM (inactive)	> 100 µM (inactive)	15.5 µM (inactive)	32.2 µM (inactive)	20.3 µM (inactive)	23 µM (inactive)						
OCCN(CCO)c1ccc2c(-c3ccccc3)cc(N(CCO)CCO)nc2n1	54.2 µM (inactive)	20 µM (inactive)	> 100 µM (inactive)	> 100 µM (inactive)	> 100 µM (inactive)	> 100 µM (inactive)	> 100 µM (inactive)	> 100 µM (inactive)	> 100 µM (inactive)		> 100 µM (inactive)	> 100 µM (inactive)	> 100 µM (inactive)	> 100 µM (inactive)	> 100 µM (inactive)	> 100 µM (inactive)	> 100 µM (inactive)	> 100 µM (inactive)	> 100 µM (inactive)
CS(=O)(=O)c1ccc(-c2cc(-c3ccc(S(C)(=O)=O)cc3)[n+](-c3cc(-c4ccc(S(C)(=O)=O)cc4)c([O-])c(-c4ccc(S(C)(=O)=O)cc4)c3)c(-c3ccc(S(C)(=O)=O)cc3)c2)cc1		> 100 µM (inactive)	> 100 µM (inactive)	> 100 µM (inactive)	> 100 µM (inactive)	> 100 µM (inactive)	> 100 µM (inactive)	> 100 µM (inactive)			> 100 µM (inactive)	> 100 µM (inactive)	> 100 µM (inactive)						
Cc1ccc(S(=O)(=O)OC2CN3CCC2CC3)cc1 (configuration not stated)	> 100 µM (inactive)	> 100 µM (inactive)	> 100 µM (inactive)	> 100 µM (inactive)	> 100 µM (inactive)	> 100 µM (inactive)	> 100 µM (inactive)	> 100 µM (inactive)	> 100 µM (inactive)	22.6 µM (inactive)	> 100 µM (inactive)	> 100 µM (inactive)		> 100 µM (inactive)	> 100 µM (inactive)	> 100 µM (inactive)	> 100 µM (inactive)	> 100 µM (inactive)	> 100 µM (inactive)
CC(C)(C)C1=NN=C2c3ccccc3C(=O)C21 (configuration not stated)	21.3 µM (inactive)	24.8 µM (inactive)	32.1 µM (inactive)	49 µM (inactive)	43.1 µM (inactive)	23 µM (inactive)	56.1 µM (inactive)	27.4 µM (inactive)	27.4 µM (inactive)	34.3 µM (inactive)	99.5 µM (inactive)	28.2 µM (inactive)	4.6 µM (inactive)	> 100 µM (inactive)	20.7 µM (inactive)	41.6 µM (inactive)	83.9 µM (inactive)	51.1 µM (inactive)	31.3 µM (inactive)
CC(C)c1ccc(NC(=S)NC(=O)c2ccccc2)cc1	22.9 µM (inactive)		23.7 µM (inactive)	23 µM (inactive)	18.2 µM (inactive)	13.4 µM (inactive)	25.4 µM (inactive)	13.6 µM (inactive)	30.8 µM (inactive)	3.82 µM (inactive)	18.4 µM (inactive)	10.4 µM (inactive)	16 µM (inactive)	18.7 µM (inactive)	31.8 µM (inactive)	13.8 µM (inactive)	31.7 µM (inactive)	18.4 µM (inactive)	23.2 µM (inactive)
CCc1ccccc1NC(=O)CCc1nnc(S)[nH]1	> 100 µM (inactive)	> 100 µM (inactive)	> 100 µM (inactive)	> 100 µM (inactive)	> 100 µM (inactive)	> 100 µM (inactive)	> 100 µM (inactive)	> 100 µM (inactive)		> 100 µM (inactive)	> 100 µM (inactive)	> 100 µM (inactive)	> 100 µM (inactive)						
N#Cc1c(-c2ccc([N+](=O)[O-])cc2)c(C#N)c(=O)n(NS(=O)(=O)c2ccccc2)c1S	74.6 µM (inactive)		20.5 µM (inactive)		37.8 µM (inactive)	10.8 µM (inactive)	19.2 µM (inactive)	20.7 µM (inactive)	31.3 µM (inactive)		32.1 µM (inactive)	36.3 µM (inactive)	40.6 µM (inactive)		20.8 µM (inactive)	38.5 µM (inactive)	50.6 µM (inactive)	31.4 µM (inactive)	
CCOC(=O)C1C2CCC(C2)C1(CCl)C(=O)OCC (configuration not stated)	> 100 µM (inactive)	> 100 µM (inactive)	> 100 µM (inactive)	> 100 µM (inactive)	> 100 µM (inactive)	> 100 µM (inactive)	> 100 µM (inactive)	> 100 µM (inactive)		> 100 µM (inactive)	> 100 µM (inactive)	> 100 µM (inactive)	> 100 µM (inactive)						
FC(F)(F)c1ccccc1/C=N/C12CC3CC(CC(C3)C1)C2	> 100 µM (inactive)	> 100 µM (inactive)	> 100 µM (inactive)	> 100 µM (inactive)	> 100 µM (inactive)	6.03 µM (inactive)	> 100 µM (inactive)		> 100 µM (inactive)	> 100 µM (inactive)	> 100 µM (inactive)	> 100 µM (inactive)	> 100 µM (inactive)						
S=C1N=C(Cl)/C(=C\c2ccco2)N1	> 100 µM (inactive)	> 79.6 µM (inactive)	> 100 µM (inactive)	> 100 µM (inactive)	> 100 µM (inactive)	> 100 µM (inactive)	> 100 µM (inactive)	> 100 µM (inactive)	> 100 µM (inactive)	> 70.5 µM (inactive)	> 100 µM (inactive)	> 100 µM (inactive)		> 100 µM (inactive)	> 100 µM (inactive)	> 100 µM (inactive)	> 100 µM (inactive)	> 100 µM (inactive)	> 100 µM (inactive)
O=C(NCc1ccccc1)c1cc2cc(O)c(O)cc2cn1	73.3 µM (inactive)	13.8 µM (inactive)	24.6 µM (inactive)	14 µM (inactive)	12.5 µM (inactive)	22.8 µM (inactive)	30.3 µM (inactive)	16.6 µM (inactive)	41.3 µM (inactive)	13.5 µM (inactive)	22.9 µM (inactive)	26.7 µM (inactive)	32.7 µM (inactive)						
Cn1c(=O)c2c(n(C)c1=O)n1c(=O)c3ccccc3nc1n2C	> 100 µM (inactive)	0.0237 µM (active)	> 100 µM (inactive)	> 100 µM (inactive)	> 100 µM (inactive)	> 100 µM (inactive)	> 100 µM (inactive)	46.9 µM (inactive)	> 100 µM (inactive)		82.2 µM (inactive)	> 100 µM (inactive)	> 100 µM (inactive)	> 100 µM (inactive)	59.4 µM (inactive)	> 100 µM (inactive)	> 100 µM (inactive)	> 100 µM (inactive)	> 100 µM (inactive)
N#CC(C#N)=C(C(C#N)C#N)C(C#N)C#N	> 100 µM (inactive)	> 100 µM (inactive)	> 100 µM (inactive)	> 100 µM (inactive)		> 100 µM (inactive)	> 100 µM (inactive)	> 100 µM (inactive)	> 100 µM (inactive)	> 100 µM (inactive)	> 100 µM (inactive)	> 100 µM (inactive)	> 100 µM (inactive)						
